Test results reported in patent US20090196924A1 (priority 2008, published 2009).
In brackets after ≈: the same amount, converted by molar mass.

Tests used:
[1] = Solubility of lamotrigine; format: physicochemical; details: all media; slightly pH-dependent, highest in 0.1N HCl
[2] = 25° C., cited from earlier work
[3] = concomitant valproate (reduces hepatic clearance of lamotrigine), for a given dose; cited from earlier work

solubility of lamotrigine [1]: moderately high in all media
Compound: Nc1nnc(-c2cccc(Cl)c2Cl)c(N)n1 [Lamotrigine, 3,5-diamino-6-(2,3-dichlorophenyl)-as-triazine]
solubility in 0.1 M HCl ([2]; 0.1 M HCl): 4100 µg/mL (≈ 16 mM)
solubility in water ([2]; water): 170 µg/mL (≈ 0.664 mM)
increase of plasma concentrations of the drug [3]: approximately two-fold
